Reference: the supplement of paper PMC10307832

Assays:
Experiment in all cases: relative viability (nuclei count vs DMSO), 5 days (fraction); higher = more cells survive
Trametinib + Luminespib = compound: CC(=O)Nc1cccc(-n2c(=O)n(C3CC3)c(=O)c3c(Nc4ccc(I)cc4F)n(C)c(=O)c(C)c32)c1 [Trametinib] + CCNC(=O)c1noc(-c2cc(C(C)C)c(O)cc2O)c1-c1ccc(CN2CCOCC2)cc1 [Luminespib] (partner 0.01 µM)
Procedure, shortened: (§1)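 Lung cancer cell lines in 1536-well plates were dosed by pin tool the day after seeding, either with one drug alone or with a fixed anchor-drug dose plus five library-drug doses (not always all listed) in √10 steps. After 5 days, cells were fixed and their nuclei stained in one step (final 0.05% Triton X-100, 1% formaldehyde, 1 ug/ml Hoechst), then counted on 4× images. Relative viability is the nuclei count in treated wells divided by that in vehicle wells. Values are medians of duplicate plates.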

Trametinib + Decitabine = compound: CC(=O)Nc1cccc(-n2c(=O)n(C3CC3)c(=O)c3c(Nc4ccc(I)cc4F)n(C)c(=O)c(C)c32)c1 [Trametinib] + Nc1ncn([C@H]2C[C@H](O)[C@@H](CO)O2)c(=O)n1 [Decitabine] (partner 2 µM)
Procedure, shortened: as §1

[1] = compound: CN1C=C(C2=CC=CC=C21)/C=C\3/C4=C(C=CC=N4)NC3=O + COc1cc2c(Oc3ccc(NC(=O)C4(C(=O)Nc5ccc(F)cc5)CC4)cc3F)ccnc2cc1OCCCN1CCOCC1 [Foretinib] (partner 0.25 µM)
Procedure, shortened: as §1

[2] = compound: CN1C=C(C2=CC=CC=C21)/C=C\3/C4=C(C=CC=N4)NC3=O + Cc1nc(NC(=O)N2CCC[C@H]2C(N)=O)sc1-c1ccnc(C(C)(C)C(F)(F)F)c1 [Alpelisib] (partner 2 µM)
Procedure, shortened: as §1

Q: What does the source list for UMC-11?
A: relative viability (Trametinib + Luminespib; first compound 0.0025 µM): 1.05; relative viability (Trametinib + Luminespib; first compound 0.007906 µM): 1.08; relative viability (Trametinib + Luminespib; first compound 0.025 µM): 0.951; relative viability (Trametinib + Luminespib; first compound 0.07906 µM): 1.04; relative viability (Trametinib + Luminespib; first compound 0.25 µM): 0.945; relative viability (Trametinib + Decitabine; first compound 0.0025 µM): 0.548; relative viability (Trametinib + Decitabine; first compound 0.007906 µM): 0.674; relative viability (Trametinib + Decitabine; first compound 0.25 µM): 0.471; relative viability ([1]; first compound 0.02 µM): 0.835; relative viability ([1]; first compound 0.06325 µM): 0.979; relative viability ([1]; first compound 0.2 µM): 1.06; relative viability ([1]; first compound 0.6325 µM): 1.14; relative viability ([1]; first compound 2 µM): 1.29; relative viability ([2]; first compound 0.02 µM): 0.725; relative viability ([2]; first compound 0.06325 µM): 1.02; relative viability ([2]; first compound 0.2 µM): 1.01; relative viability ([2]; first compound 0.6325 µM): 1.05; relative viability ([2]; first compound 2 µM): 1.12
